We go through three compounds from patent publication US20050187181A1 (University of Maryland, priority 2004, published 2005).

Data set [1] relates to rat in endotoxic shock (LPS). Briefly: Endotoxic shock (LPS 10 mg/kg iv) with intravenous inosine infusion. Type of data set: in vivo. As to the method:
Pentobarbital-anesthetized (50 mg/kg) rats (380-420 g) had cannulas placed in their femoral artery and vein. Arterial Blood pressure was monitored via the femoral artery cannula. After 15 minutes of stabilization, the rats were injected with 10 mg/kg of lipopolysaccharide (LPS, Sigma Aldrich, serotype 026:B6) in saline via the femoral vein. At the same time, an infusion of saline or inosine (5 mM) in saline or no infusion was begun (5 ml/hr) via the femoral vein cannula. A 5 mM solution of inosine is […]. Arterial pressure and heart rate were monitored throughout the procedure. Survival time was recorded. Supplemental doses (15 mg/kg) of pentobarbital were given via the femoral vein cannula every hour. Rats surviving beyond 8.5 hr had their cannulas removed and were allowed to recover from pentobarbital anesthesia. These rats lived till 48 hours at which time we terminated the experiment. Inosine was administered at a rate of 1.34 mg/ml at 5 ml/hour for 5 hours which is a total of 33.5 mg for 5 hours. In 400 gram rats that is a total of about 83.75 mg/kg over the 5 hour period; 16.75 mg/hr or 402 mg/day.

The subject of data set [2] is rats in severe hemorrhagic shock. As to conditions: for effect on shock-elevated plasma K^+: 0.5 hr; for Plasma K^+ 0.5 hr after Resuscitation: mean ± SE, N = 7/group; for survival compared to saline and cytidine controls (Kaplan-Meier): single dose of 2.5 mM in saline, 8 rats/group, p<0.001.
Method: Pentobarbital-anesthetized rats were subjected to severe hemorrhagic shock. Five groups of eight rats were resuscitated.
Plasma K^+ was measured from plasma taken before hemorrhage, before resuscitation and 0.5 hrs after resuscitation using a K^+ electrode (Jenco Electronics, Inc., San Diego, Calif.). Survival time between groups was compared by Kaplan-Meier survival Analysis.
Data set [3] deals with murine model of colitis (DSS). As to conditions: cited from earlier work.
For data set [4], the system named is septic shock induced by cecal ligation and puncture (CLP). Particulars: cited from earlier work.
Data set [5] deals with lipopolysaccharide-induced shock. As to conditions: cited from earlier work.
The conditions of data set [6]: human blood; cited from earlier work.
The conditions of data set [7]: water; cited from earlier work.
The next data set has as its system Na/K ATPase. Put plainly: Na/K ATPase assay (86Rb uptake into red blood cells).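 For all read-outs here: washed human red blood cells in K-free Ringer, test agent preincubated 20 min, then 86Rb uptake over 4 h at 37 °C counted as CPM per tube versus water control.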 Particulars: for relative effectiveness at stimulating Na/K ATPase: 10^-3 Molar (FIG. 8); for stimulation of Na/K ATPase: human red blood cells, dose response (FIG. 3b, FIG. 8); for stimulation of Na/K ATPase in the presence of ouabain: partial inhibition / sub maximal doses of ouabain (FIG. 9).

Data set [8] deals with rats in severe hemorrhagic shock. Briefly: Rat shock model for adenosine experiments (0.5 mM adenosine resuscitation). Format: in vivo. The method, then:
It was hypothesized that stimulation of Na/K ATPase with adenosine may reverse, alleviate or attenuate the effects of an endogenous inhibitor that appears during hemorrhagic shock. […] Blood samples (0.5 ml) were taken before hemorrhage, before resuscitation and 1 hr after resuscitation for measurement of plasma K and Na.
All animal procedures are conducted with the authorization of the Institutional Animal Care and Use Committee at the University of Maryland, School of Medicine. […] Blood samples (0.5 ml) were taken before hemorrhage, before resuscitation and 1 hr after resuscitation for measurement of plasma K and Na. Blood was centrifuged 3500 rpm for 2 min, plasma removed and K and Na was measured by flame photometer. Before and after resuscitation potassium (K) was analyzed by Newman Keul post hoc test after ANOVA.

Structures are written as SMILES. Entries after “also recorded” stand apart in the source; their conditions may differ. Like-named read-outs stand apart in the source and are kept apart here. A value given as a limit tells only on which side of the number the result lay.

Method for Na/K ATPase: Human red blood cells of any group-type were donated for research by the Blood Bank of the University Of Maryland, School of Medicine. Five ml of red cells are washed 3 times in 40 ml of Potassium free Ringers solution (141 mM NaCl, 1 mM H2NaPO4, 0.5 mM CaCl2, 1 mM MgSO4, 4.5 mM glucose, 10 mM HEPES pH7.4). 50 μl of washed red cells are added to 220 μl of potassium free Ringers solution. 30, 10, 3 or 1 μl of ultra-filtrate, HPLC (high performance liquid chromatography) fraction, or adenosine, inosine, guanosine, deoxyadenosine, deoxyguanosine, caffeine, aminophylline, dipyridamole, NBTI, 6thioinosine, 6thioguanosine, or EHNA (all in buffer) is added to the mixture and incubated for 20 min. 4 μCi of 86RbCl is added and incubated for 4 hrs at 37° C. The mixture is than washed three times with 4° C. Potassium free Ringers solution and the cells counted in a gamma counter (Packard, Cobra II). Na/K ATPase activity is expressed as the CPM (counts per minute) (CPM/tube*4 hrs). The effects of ultra-filtrate or HPLC fractions on ^86Rb uptake into red cells are compared to equal volumes of either water (control) or, in some cases, 0.01 mM Ouabain (maximal inhibition).

In the case of `OC[C@H]1O[C@@H](n2cnc3c(O)ncnc32)[C@H](O)[C@@H]1O` [inosine], the “survival compared to saline or no-resuscitation groups (Kaplan-Meier)” value in data set [1] (continuous infusion 5 ml/hr of 5 mM for 5 hrs) was “survived significantly longer than the saline or no-resuscitation groups”. Also, the “survival / success in resuscitating rats fully” value in data set [1] (iv infusion 5 mM, 5 ml/hr, 5 hours, observed to 48 hours) worked out at 100%. Also, the “bradycardia on resuscitation from hemorrhagic shock” value in data set [2] (2.5 mM in saline) was “did not cause the bradycardia”. Further, in [2] (2.5 mM in saline), the “time to 50% mortality” value is “about 100 minutes”. Also, the “time to 100% mortality” value in data set [2] (2.5 mM in saline) was “about 150 minutes”. Moreover, the “effect on shock-elevated plasma K^+” value in data set [2] (2.5 mM in saline) was “lowered the shock-elevated plasma K^+”. The “Plasma K^+ 0.5 hr after Resuscitation” value in data set [2] (2.5 mM in saline) is given as 2.93 ± 0.21 mM. In [2] (rat, in vivo), the “adverse effects on resuscitation from hemorrhagic shock” value was “without any adverse effects”. In addition, the “survival compared to saline and cytidine controls (Kaplan-Meier)” value in data set [2] is given as “survived significantly longer”; in data set [2] (listed as Inosine), “survived significantly longer than saline or cytidine controls; also recorded: significantly increased survival”. Besides, the mortality (usually the share of the test organisms that died) in data set [3] (oral inosine from day one, by day 30) is listed as 60%; in data set [4] (post-treatment protocol, 100 mg/kg IP x3, at 24 hours), “about 20%”; in data set [4] (post-treatment protocol, at 120 hours) it was “about 90%”; in [4] (post-treatment protocol, by 48 hours), “about 80%”; in data set [4] (pre-treatment protocol, 100 mg/kg IP x3, by 24 hours), 15%; in [4] (pre-treatment protocol, by 48 hours), “about 70%”. The mortality entry is listed as “about 75%” in data set [4] (pre-treatment protocol, by 120 hours); 19% in data set [5] (single IP 100 mg/kg 30 minutes before LPS 70 mg/kg IP, at 36 hours); 37.5% in data set [5] (single IP 100 mg/kg before LPS, at 60 hours); 50% in [5] (single IP 100 mg/kg before LPS, by 96 hours). The protection of colon entry in data set [3] (oral inosine) is “protected the colon from DSS induced inflammatory cell infiltration and lipid peroxidation”. Moreover, the organ damage entry in data set [4] (100 mg/kg IP x3) is listed as “significantly reduced”. The survival entry in [4] (100 mg/kg IP x3) was “significantly improved”. In [5] (single IP 100 mg/kg before LPS), the “survival compared to untreated mice” value is given as “prolonged survival compared to untreated mice”. In data set [6], the half life was less than 1 s. For the same compound, in data set [7], the solubility entry is “highly soluble in water”. Further, the “relative effectiveness at stimulating Na/K ATPase” value in the data set with Na/K ATPase is recorded as “both equally effective”. The “stimulation of Na/K ATPase” value in the data set on Na/K ATPase was “stimulated Na/K ATPase in a dose-dependent manner”. Also, the “stimulation of Na/K ATPase in the presence of ouabain” value in the data set on Na/K ATPase is reported as “overcame partial inhibition by ouabain”.

Regarding `Nc1ncnc2c1ncn2[C@@H]1O[C@H](CO)[C@@H](O)[C@H]1O` [adenosine], the “plasma K after resuscitation” value in data set [8] (1 hr after resuscitation, 0.5 mM) is reported as “recovery of plasma K to prehemorrhage levels by 1 hr”. In addition, the survival in [8] (at about 70 minutes after resuscitation, 0.5 mM) came out at 100%. Besides, the survival result in [8] (at about 160 minutes, 0.5 mM) is on record as “about 25%”. The survival in [8] (from 70 to 120 minutes, 0.5 mM) is on record as 85%. Also, the bradycardia entry in data set [8] (shocked rats, 0.5 mM infusion (about 3 to 4.5 mg/kg)) is given as “caused bradycardia”. In data set [8] (single dose 0.5 mM in saline, infusion volume equal to blood lost, p<0.01), the “survival compared to saline alone (Kaplan-Meier)” value is recorded as “significantly prolonged survival”. Moreover, in [2] (2.5 mM in saline), the “effect on shock-elevated plasma K^+” value is “lowered the shock-elevated plasma K^+” and the “Plasma K^+ 0.5 hr after Resuscitation” value was found to be 3.10 ± 0.20 mM. The “survival compared to saline and cytidine controls (Kaplan-Meier)” value in data set [2] is reported as “survived significantly longer than saline or cytidine controls; also recorded: significantly increased survival; also recorded: survived significantly longer”. In the data set with Na/K ATPase, the “relative effectiveness at stimulating Na/K ATPase” value was “more effective at stimulating Na/K ATPase than guanosine and inosine”; the “stimulation of Na/K ATPase” value was “stimulated Na/K ATPase in a dose-dependent manner”; the “stimulation of Na/K ATPase in the presence of ouabain” value is “this stimulation occurs even in the presence of ouabain”.

As for `Nc1ccn([C@@H]2O[C@H](CO)[C@@H](O)[C@H]2O)c(=O)n1` [cytidine, reference compound], in data set [2] (2.5 mM in saline), the “time to 100% mortality” value was 50 min, the “time within which all resuscitated rats died” value is not above 52 min, the “effect on shock-elevated plasma K^+” value is listed as “did not lower plasma K^+ concentration” and the “Plasma K^+ 0.5 hr after Resuscitation” value amounted to 4.30 ± 0.35 mM. The “mean arterial blood pressure after resuscitation” value in [2] (2.5 mM in saline (FIG. 15)) was “mean arterial blood pressure fell earlier”. In addition, the “effect of pyrimidines on Na/K ATPase” value with Na/K ATPase (doses ranging from 10^-3 to 10^-10 M) is listed as “had no effect in the assay”.
